The results in this text go back to article PMC10235986, “Probing differences among Aβ oligomers with two triangular trimers derived from Aβ” (Proceedings of the National Academy of Sciences of the …, 2023).

For assay [1], the system named is SH-SY5Y cells. The assay is described as follows: Toxicity of Aβ42 alone (LDH release, ATP levels, caspase-3/7 activation, cell viability). It is filed as cell-based, human. From the text:
To investigate the effect of 2AT and KLT on Aβ42 toxicity, we performed a series of cell-based toxicity experiments in which we examined four toxicity markers—LDH release, changes in ATP levels, caspase-3/7 activation, and cell viability—in SH-SY5Y cells exposed to Aβ42 in the absence or presence of 2AT and KLT. We first identified an Aβ42 concentration that elicits significant toxicity in the absence of 2AT and KLT by exposing SH-SY5Y cells to varying concentrations of Aβ42 and then performing the toxicity assays. The toxicity markers establish that Aβ42 elicits significant toxicity at 6 μM (SI Appendix, Fig. S8). […]
Detailed methods are provided in the Supporting Information. […] X-ray diffraction data for KLT and KLTI were collected on a Rigaku Micromax-007HF X-ray diffractometer with a rotating copper anode, and the X-ray crystallographic phases were determined using molecular replacement and SAD phasing. […] Live-cell fluorescence microscopy was performed on SH-SY5Y cells adhered to an Ibidi µ-Slide eight Well Chamber Slide. The cells were imaged using a Keyence BZ-X810 fluorescence microscope and analyzed using the Hybrid Cell Count application in the BZ-X810 Analyzer software. […]
(LDH in the medium is a marker of cell lysis.)

Assay [2] relates to SH-SY5Y cells. In words: Live-cell fluorescence microscopy of HL647-Aβ42 cellular interaction. It is filed as cell-based, human. To be noted: 1 μM HL647-Aβ42, absence of 2AT and KLT, 16 h. The procedure:
Fig. 7. The effects of 2AT and KLT on Aβ42 toxicity and cellular interaction (A–D). (A) LDH release assay (B) CellTiter-Glo ATP assay. (C) ApoLive-Glo cell viability assay. (D) ApoLive-Glo caspase-3/7 activation assay. The cell-based assays in A–D were performed by exposing SH-SY5Y cells to 6 μM Aβ42 in the presence of a twofold dilution series of 2AT and KLT for 72 h. All data from the assays are shown as the mean of three technical replicates, with error bars representing the SD. (E–I) Live-cell fluorescence micrographs of SH-SY5Y cells after treatment with 1 μM HiLyte™ Fluor 647-Aβ42 (HL647-Aβ42) in the presence of 0 μM trimer (E) or 2 μM and 4 μM 2AT (F and G) or 2 μM and 4 μM KLT (H and I) for 16 h; (Scale bars, 20 μm.) Fluorescence quantification (FQ), as determined by (total fluorescence of HL647Aβ42)/(total number of cells) is indicated on each micrograph. Dead cells were excluded from the fluorescence quantification analysis and are marked with a white “x”. […]
For these experiments, we exposed SH-SY5Y cells to 1 μM solutions of N-terminally labeled HiLyte™ Fluor 647-Aβ42 (HL647-Aβ42) containing 0 μM, 2 μM, or 4 μM 2AT or KLT and then used live-cell fluorescence microscopy to visualize and quantify HL647-Aβ42 fluorescence on the cells. […]

As for “Aβ42: full-length β-amyloid peptide Aβ42”, the “concentration that elicits significant toxicity” value in the assay on SH-SY5Y cells [1] came to 6 µM.

Consider “HL647-Aβ42: N-terminally labeled HiLyte Fluor 647-Aβ42”, for which the “cellular localization / uptake of HL647-Aβ42” value in the assay with SH-SY5Y cells [2] is given as “accumulates as punctate features inside the cells”.
